Experimental data reported in PubChem BioAssay AID248 (DTP/NCI, 2004).
Several values for one entry are separate records, joined by “and”; a condition that tells them apart may be missing. Equal entries are not always repeated. Inconclusive results and toxic doses are left out. Cut-off read from the data, not from the text of the source: active = T/C of 150% or more; inactive = T/C below 125%.

Test system: L1210 leukemia ip in BDF1 mice, survival T/C
Test: NCI In Vivo Anticancer Drug Screen. Data for tumor model L1210 Leukemia (intraperitoneal) in B6D2F1 (BDF1) mice
Conditions: endpoint: mean survival time, higher = longer survival
How it was run: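 Tumor was transplanted into mice, which were then dosed with test compound or vehicle alone. Survival was recorded for each group, and the treated figure was expressed relative to the control figure.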

[1] = dose: 100.0 mg/kg/injection, schedule: Q01DX009 (ip), vehicle: Klucel (hydroxypropylcellulose) (HPC)
[2] = dose: 100.0 mg/kg/injection, schedule: Q04DX002 (ip), vehicle: Klucel (hydroxypropylcellulose) (HPC)
[3] = dose: 200.0 mg/kg/injection, schedule: Q01DX009 (ip), vehicle: Klucel (hydroxypropylcellulose) (HPC)
[4] = dose: 200.0 mg/kg/injection, schedule: Q04DX002 (ip), vehicle: Klucel (hydroxypropylcellulose) (HPC)
[5] = dose: 400.0 mg/kg/injection, schedule: Q01DX009 (ip), vehicle: Klucel (hydroxypropylcellulose) (HPC)
[6] = dose: 400.0 mg/kg/injection, schedule: Q04DX002 (ip), vehicle: Klucel (hydroxypropylcellulose) (HPC)
[7] = dose: 50.0 mg/kg/injection, schedule: Q01DX001 (ip), vehicle: saline
[8] = dose: 100.0 mg/kg/injection, schedule: Q04DX003 (ip), vehicle: Klucel (hydroxypropylcellulose) (HPC)
[9] = dose: 200.0 mg/kg/injection, schedule: Q04DX003 (ip), vehicle: Klucel (hydroxypropylcellulose) (HPC)
[10] = dose: 400.0 mg/kg/injection, schedule: Q04DX003 (ip), vehicle: Klucel (hydroxypropylcellulose) (HPC)
[11] = dose: 100.0 mg/kg/injection, schedule: Q04DX002 (ip), vehicle: saline with Tween-80
[12] = dose: 100.0 mg/kg/injection, schedule: Q01DX001 (ip), vehicle: saline
[13] = dose: 200.0 mg/kg/injection, schedule: Q01DX001 (ip), vehicle: saline
[14] = dose: 400.0 mg/kg/injection, schedule: Q01DX001 (ip), vehicle: saline
[15] = dose: 200.0 mg/kg/injection, schedule: Q04DX002 (ip), vehicle: saline with Tween-80
[16] = dose: 400.0 mg/kg/injection, schedule: Q04DX002 (ip), vehicle: saline with Tween-80

Measured: T/C

Cc1cnc(N)c([N+](=O)[O-])c1
inactive: dose: 100.0 mg/kg/injection, schedule: Q01DX005 (ip), vehicle: Klucel (hydroxypropylcellulose) (HPC) 94 % of control | [1] 97 % of control | [2] 96 % of control | dose: 200.0 mg/kg/injection, schedule: Q01DX005 (ip), vehicle: Klucel (hydroxypropylcellulose) (HPC) 94 % of control | [3] 97 % of control | [4] 100 % of control | dose: 400.0 mg/kg/injection, schedule: Q01DX005 (ip), vehicle: Klucel (hydroxypropylcellulose) (HPC) 94 % of control | [5] 91 % of control | [6] 93 % of control

CC1=C(N)C(=O)C2=C(C1=O)N1CC3C(N3C)C1(O)C2COC(N)=O (configuration not stated)
inactive: dose: 15.0 mg/kg/injection, schedule: Q01DX001 (ip), vehicle: acetone 111 % of control | dose: 23.0 mg/kg/injection, schedule: Q01DX001 (ip), vehicle: acetone 109 % of control | dose: 35.0 mg/kg/injection, schedule: Q01DX001 (ip), vehicle: saline 111 % of control | dose: 50.0 mg/kg/injection, schedule: Q01DX001 (ip), vehicle: acetone 108 % of control | [7] 118 % of control

c1ccc2c(c1)CNNC2
inactive: dose: 25.0 mg/kg/injection, schedule: Q01DX009 (ip), vehicle: saline 97 % of control | dose: 50.0 mg/kg/injection, schedule: Q01DX009 (ip), vehicle: saline 96 % of control | dose: 100.0 mg/kg/injection, schedule: Q01DX009 (ip), vehicle: saline 102 % of control | dose: 200.0 mg/kg/injection, schedule: Q01DX009 (ip), vehicle: saline 103 % of control | dose: 400.0 mg/kg/injection, schedule: Q01DX009 (ip), vehicle: saline 105 % of control

CC(=[N-])CC(C)=O.CC(=[N-])CC(C)=O.[Co+2]
inactive: dose: 12.5 mg/kg/injection, schedule: Q01DX001 (ip), vehicle: saline 86 % of control | dose: 25.0 mg/kg/injection, schedule: Q01DX001 (ip), vehicle: saline 98 % of control

CC1(C)CCc2c(cc(OCc3ccccc3)c(-c3c(OCc4ccccc4)cc4c(c3O)CCC(C)(C)O4)c2O)O1
inactive: [8] 94 % of control | [9] 93 % of control | [10] 94 % of control

COC(=O)CCCC(=O)c1[nH]c2ccccc2c1CC(=O)NCc1ccccc1
inactive: dose: 75.0 mg/kg/injection, schedule: Q01DX001 (ip), vehicle: alcohol 97 % of control | dose: 150.0 mg/kg/injection, schedule: Q01DX001 (ip), vehicle: alcohol 93 % of control | dose: 300.0 mg/kg/injection, schedule: Q01DX001 (ip), vehicle: alcohol 92 % of control

NC(CSSCC(NC(=O)CNC(=O)OCc1ccccc1)C(=O)O)C(=O)O (configuration not stated)
inactive: dose: 100.0 mg/kg/injection, schedule: Q01DX001 (ip), vehicle: Klucel (hydroxypropylcellulose) (HPC) 93 % of control | dose: 200.0 mg/kg/injection, schedule: Q01DX001 (ip), vehicle: Klucel (hydroxypropylcellulose) (HPC) 90 % of control | dose: 400.0 mg/kg/injection, schedule: Q01DX001 (ip), vehicle: Klucel (hydroxypropylcellulose) (HPC) 98 % of control

CCCCNC(=O)COc1c(C)cccc1Cl
inactive: dose: 25.0 mg/kg/injection, schedule: Q04DX002 (ip), vehicle: saline with Tween-80 101 % of control | dose: 50.0 mg/kg/injection, schedule: Q04DX002 (ip), vehicle: saline with Tween-80 96 % of control | [11] 96 % of control

CCCC(=O)N1CCCCC1
inactive: [2] 88 % of control

Nc1cc(N)cc(Cc2ccccc2)c1
inactive: dose: 50.0 mg/kg/injection, schedule: Q01DX009 (ip), vehicle: Klucel (hydroxypropylcellulose) (HPC) 100 % of control | [1] 95 % of control | [8] 100 % of control | [3] 103 % of control | [9] 102 % of control | [5] 92 % of control | [10] 98 % of control

CC(CCc1ccc(OC(=O)c2ccccc2)cc1)OC(=O)c1ccccc1 (configuration not stated)
inactive: [7] 101 % of control | [12] 95 % of control | [13] 98 % of control | [14] 95 % of control

Cc1ccc(S(=O)(=O)Oc2ccccc2NS(=O)(=O)c2ccccc2)cc1
inactive: [12] 101 % of control | dose: 100.0 mg/kg/injection, schedule: Q04DX003 (ip), vehicle: acetone 96 % of control | [13] 95 % of control | dose: 200.0 mg/kg/injection, schedule: Q04DX003 (ip), vehicle: acetone 92 % of control | [14] 95 % of control | dose: 400.0 mg/kg/injection, schedule: Q04DX003 (ip), vehicle: acetone 87 % of control

O=C(O)CCN1CCN(c2cccc(Cl)c2)CC1
inactive: [12] 96 % of control | [13] 95 % of control

O=C(O)C1CSC2(CCCCC2)N1 (configuration not stated)
inactive: dose: 100.0 mg/kg/injection, schedule: Q04DX003 (ip), vehicle: saline 93 % of control | dose: 200.0 mg/kg/injection, schedule: Q04DX003 (ip), vehicle: saline 98 % of control | dose: 400.0 mg/kg/injection, schedule: Q04DX003 (ip), vehicle: saline 89 % of control

CSc1ssc(=Nc2ccc(C)cc2)c1-c1ccccc1
inactive: [1] 95 % of control | [8] 88 % of control | [3] 93 % of control | [9] 91 % of control | [5] 93 % of control | [10] 89 % of control

NC(=O)c1ccccc1OC(=O)Nc1ccc(F)c([N+](=O)[O-])c1
inactive: [1] 97 % of control | [3] 104 % of control | [5] 101 % of control

O=C1C=C(O)c2ccccc2C1=O
inactive: dose: 10.0 mg/kg/injection, schedule: Q01DX Z (ip), vehicle: other 98 % of control | dose: 12.5 mg/kg/injection, schedule: Q04DX003 (ip), vehicle: saline with Tween-80 98 % of control | dose: 20.0 mg/kg/injection, schedule: Q01DX Z (ip), vehicle: other 88 % of control | dose: 25.0 mg/kg/injection, schedule: Q04DX003 (ip), vehicle: saline with Tween-80 106 % of control | dose: 30.0 mg/kg/injection, schedule: Q01DX Z (ip), vehicle: other 90 % of control | dose: 31.2 mg/kg/injection, schedule: Q01DX Z (ip), vehicle: other 97 % of control | dose: 40.0 mg/kg/injection, schedule: Q01DX Z (ip), vehicle: other 90 % of control | dose: 50.0 mg/kg/injection, schedule: Q04DX003 (ip), vehicle: saline with Tween-80 92 % of control

COc1cccc(/C=N/N=C(N)N)c1OC
inactive: dose: 62.5 mg/kg/injection, schedule: Q01DX Z (ip), vehicle: saline 101 % of control

CC(=O)Nc1ccc(NC(=O)c2ccc(Cl)cc2)cc1
inactive: dose: 50.0 mg/kg/injection, schedule: Q01DX001 (ip), vehicle: saline with Tween-80 95 % of control | dose: 100.0 mg/kg/injection, schedule: Q01DX001 (ip), vehicle: saline with Tween-80 95 % of control | dose: 100.0 mg/kg/injection, schedule: Q01DX009 (ip), vehicle: saline with Tween-80 97 % of control and 87 % of control | [11] 90 % of control and 91 % of control | dose: 100.0 mg/kg/injection, schedule: Q04DX003 (ip), vehicle: saline with Tween-80 92 % of control | dose: 200.0 mg/kg/injection, schedule: Q01DX001 (ip), vehicle: saline with Tween-80 90 % of control | dose: 200.0 mg/kg/injection, schedule: Q01DX009 (ip), vehicle: saline with Tween-80 95 % of control and 97 % of control | [15] 93 % of control and 97 % of control | dose: 200.0 mg/kg/injection, schedule: Q04DX003 (ip), vehicle: saline with Tween-80 89 % of control | dose: 400.0 mg/kg/injection, schedule: Q01DX001 (ip), vehicle: saline with Tween-80 87 % of control | dose: 400.0 mg/kg/injection, schedule: Q01DX009 (ip), vehicle: saline with Tween-80 97 % of control and 90 % of control | [16] 90 % of control and 92 % of control | dose: 400.0 mg/kg/injection, schedule: Q04DX003 (ip), vehicle: saline with Tween-80 87 % of control

CCOC1(CC)CN(Cc2ccccc2)CCO1 (configuration not stated)
inactive: [1] 103 % of control | [3] 93 % of control | [5] 98 % of control

O=C(Nc1ccc(S(=O)(=O)F)c(Cl)c1)Oc1ccccc1
inactive: [12] 96 % of control | [13] 96 % of control | [14] 96 % of control

CC(=O)NNc1ccc([N+](=O)[O-])cc1
inactive: [8] 89 % of control | [9] 94 % of control | [10] 89 % of control

COc1cccc(OC)c1C(=O)O
inactive: [2] 100 % of control | [4] 111 % of control | [6] 100 % of control

CCC(Cl)COP(=O)(OCC(Cl)CC)C(C(C)C)P(=O)(OCC(Cl)CC)OCC(Cl)CC (configuration not stated)
inactive: [11] 96 % of control | [15] 100 % of control | [16] 89 % of control
